The source of these data is patent US20100173832A1, “ANTICANCEROUS POLYMERIC AGENTS” (TECHNION RESEARCH & DEVELOPMENT FOUNDATION LTD., priority 2007, published 2010).

Like-named read-outs stand apart in the source and are kept apart here. Non-standard residues stand in square brackets, D forms with d. Residues, ends and D or L forms follow the SMILES beside them. *: point of attachment. Lauroyl = CCCCCCCCCCCC(=O)*; 12Ado = NCCCCCCCCCCCC(=O)O; Octanoyl = CCCCCCCC(=O)*

Data set [1] concerns MCF-7 cell line. It counts as cell-based.
Description: Human breast adenocarcinoma cells (MCF-7);
Thereafter, a series of increasing concentrations of the polymers were added. […] The optical density of the cells was measured at 450 nm by ELISA plate reader after 2-4 hours XTT incubation. Cell viability was determined relative to a control having no polymer added thereto.
The nature of data set [2]: XTT cell viability assay, non-cancerous cardiac fibroblasts (CF). It is filed as cell-based, rat. Particulars: rat. The source says: Primary non-cancerous rat cardiac fibroblasts (CF);
(§1) As a routine cancer cell killing assay for assessment of antitumor activity, 2,3-bis(2-methoxy-4-nitro-5-sulfophenyl)-2H-tetrazolium-5-carboxanilide inner salt (XTT) reduction assay was used, utilizing a commercial kit such as, for example, Cell Proliferation XTT Kit, Cat. No. 20-300-1000, Biological Industries Ltd., Kibbutz Beit Haemek, Israel. XTT is a tetrazolium salt which is cleaved to formazan colored compounds by the mitochondrial dehydrogenase enzymes indicating proper mitochondrial activity in intact cells.
(§2) Thereafter, a series of increasing concentrations of the polymers were added. After another 24 hours of incubation, XTT reaction solution was added (50 μl of XTT per 100 μl of cell culture medium). The optical density of the cells was measured at 450 nm by ELISA plate reader after 2-4 hours XTT incubation. Cell viability was determined relative to a control having no polymer added thereto.
“Rat primary cardiac fibroblast CF” represents the lethal concentration in μM as measured against CF cell line, measured as described hereinabove in the cell proliferation XTT assay (column 8 in Table 3);
Background: Formazan colour is commonly taken as a measure of viable cells.

In data set [3] the test system is N-417 cell line. As to the kind of experiment: XTT cell viability assay, N-417 cells. It is filed as cell-based.
Description: Variant small cell lung cancer cells (N-417, SCLC);
as §1, §2
“Human breast cancer MCF-7” represents the lethal concentration in μM as measured against MCF-7 cell line, measured as described hereinabove in the cell proliferation XTT assay (column 6 in Table 3); “Human small-cell lung carcinoma N-417” represents the lethal concentration in μM as measured against N-417 cell line, measured as described hereinabove in the cell proliferation XTT assay (column 7 in Table 3);

Data set [4] relates to TRAMP-C2 cell line. It counts as cell-based.
Description: Transgenic adenocarcinoma mouse prostate cells (TRAMP-C2);
as §1, §2
“Mouse prostate cancer TRAMP-C2” represents the lethal concentration in μM as measured against TRAMP-C2 cell line, measured as described hereinabove in the cell proliferation XTT assay (column 5 in Table 3);

A short description of data set [5]: in vitro. The conditions noted are these: human. The method, then: The polymer's toxic potential was determined against human red blood cells (RBC) by measuring leakage of hemoglobin therefrom in phosphate buffer solution (PBS). Human blood samples were rinsed three times in PBS by centrifugation for 2 minutes at 200×g, and re-suspended in PBS at 5% hematocrit. A 50 μl-fractions of a suspension containing […] RBC were added to test tubes containing 200 μl of polymer solutions (2-fold serial dilutions in PBS), PBS alone (for base-line values), or distilled water (for 100% hemolysis). […] Controls for base-line hemolysis (blank) and 100% hemolysis consisted of RBC suspended in PBS and TritonX100 (0.2%), respectively.

Where [6] appears, read: 24 hours incubation, XTT, read-out: Cancer LC50 Human breast cancer MCF-7.
[7] abbreviates: primary non-cancerous cardiac fibroblasts (CF), 24 hours incubation, XTT, non-cancerous cells, read-out: Cancer LC50 Rat primary cardiac fibroblast CF.
The mark [8] stands for this setting: 24 hours incubation, XTT, read-out: Cancer LC50 Human small-cell lung carcinoma N-417.
The mark [9] stands for this setting: 24 hours incubation, XTT, read-out: Cancer LC50 Mouse prostate cancer TRAMP-C2.
Setting [10] is: Cancer LC50 Rat primary cardiac fibroblast CF.

Regarding `CCCCCCCC(=O)N[C@@H](CCCCN)C(=O)N[C@@H](CCCCN)C(=O)NCCCCCCCCCCCC(=O)N[C@@H](CCCCN)C(=O)N[C@@H](CCCCN)C(=O)NCCCCCCCCCCCC(=O)N[C@@H](CCCCN)C(N)=O` [C8K(KNC12K)2NH2] (Octanoyl-KK[12Ado]KK[12Ado]K-NH2), the CC50 was 20 ± 1 µM in data set [1] (setting [6]), above 16 µM in data set [3] (setting [8]) and above 16 µM in data set [4] (setting [9]). Further, the CC50 at 24 h in data set [2] (setting [7]) is above 50 µM.
As for `NCCCC[C@H](NC(=O)CCCCCCCCCCCNC(=O)[C@H](CCCCN)NC(=O)[C@H](CCCCN)NC(=O)CCCCCCCCCCCNC(=O)[C@H](CCCCN)NC(=O)[C@H](CCCCN)NC(=O)CCCCCCCCCCCNC(=O)[C@H](CCCCN)NC(=O)[C@@H](N)CCCCN)C(N)=O` [K(KNC12K)3NH2] (H-KK[12Ado]KK[12Ado]KK[12Ado]K-NH2), the CC50 in data set [1] (setting [6]), in data set [3] (setting [8]) and in data set [4] (setting [9]) was above 16 µM each time. Further, the CC50 at 24 h in data set [2] (setting [7]) was above 16 µM. This compound gave an HC50 at 3 h in data set [5] (red blood cells) above 100 µM.
Take `CCCCCCCC(=O)N[C@@H](CCCCN)C(=O)NCCCCCCCCCCCC(=O)N[C@@H](CCCCN)C(=O)N[C@@H](CCCCN)C(=O)NCCCCCCCCCCCC(=O)N[C@@H](CCCCN)C(N)=O` [C8(KNC12K)2NH2] (Octanoyl-K[12Ado]KK[12Ado]K-NH2): the values for the CC50 in data set [1] (setting [6]), in data set [3] (setting [8]) and in data set [4] (setting [9]) were above 16 µM, above 16 µM and above 8 µM, respectively. Also, the CC50 at 24 h in data set [2] (setting [7]) was above 16 µM.
Turning to `CCCCCCCCCCCC(=O)N[C@@H](CCCCN)C(=O)N[C@@H](CCCCN)C(=O)NCCCCCCCCCCCC(=O)N[C@@H](CCCCN)C(=O)N[C@@H](CCCCN)C(=O)NCCCCCCCCCCCC(=O)N[C@@H](CCCCN)C(N)=O` [C12K(KNC12K)2NH2] (Lauroyl-KK[12Ado]KK[12Ado]K-NH2), the CC50 in data set [1] (setting [6]) was 12 ± 4 µM; in data set [3] (setting [8]) it was 11 ± 1 µM; in data set [4] (setting [9]), above 16 µM. The CC50 at 24 h in data set [2] (setting [7]) came to 38 ± 1 µM.
The like results for `NCCCC[C@H](NC(=O)CCCCCCCCCCCNC(=O)[C@H](CCCCN)NC(=O)[C@H](CCCCN)NC(=O)CCCCCCCCCCCNC(=O)[C@H](CCCCN)NC(=O)[C@@H](N)CCCCN)C(N)=O` [K(KNC12K)2NH2] (HELM PEPTIDE1{K.K.[O=C(CCCCCCCCCCCN[*:1])[*:2]].K.K.[O=C(CCCCCCCCCCCN[*:1])[*:2]].K.[am]}$$$$V2.0) were, in that order, above 16 µM, above 16 µM, above 16 µM and above 16 µM.
Take `NCCCC[C@@H]1NC(=O)CCCCCCCCCCCNC(=O)[C@H](CCCCN)NC(=O)[C@H](CCCCN)NC(=O)CCCCCCCCCCCNC(=O)[C@H](CCCCN)NC1=O` [Cyclic-(KNC12K)2] (HELM PEPTIDE1{[O=C(CCCCCCCCCCCN[*:1])[*:2]].K.K.[O=C(CCCCCCCCCCCN[*:1])[*:2]].K.K}$PEPTIDE1,PEPTIDE1,1:R1-6:R2$$$V2.0): in data set [5] (red blood cells), the HC50 at 3 h is above 100 µM.
For `NCCCC[C@H](NC(=O)CCCCCCCCCCCNC(=O)[C@H](CCCCN)NC(=O)[C@@H](N)CCCCN)C(N)=O` [KKNC12KNH2] (HELM PEPTIDE1{K.K.[O=C(CCCCCCCCCCCN[*:1])[*:2]].K.[am]}$$$$V2.0), the CC50 in data set [1] (human, 24 h) was above 16 µM; in data set [3] (human, 24 h), above 16 µM; in data set [4] (mouse, 24 h) it was above 16 µM. Besides, the CC50 at 24 h in data set [2] (setting [10]) was above 16 µM.
Take `NCCCC[C@@H]1NC(=O)CCCCCCCCCCCNC(=O)[C@H](CCCCN)NC(=O)[C@H](CCCCN)NC(=O)CCCCCCCCCCCNC1=O` [Cyclic-NC12KKNC12K] (HELM PEPTIDE1{[O=C(CCCCCCCCCCCN[*:1])[*:2]].K.[O=C(CCCCCCCCCCCN[*:1])[*:2]].K.K}$PEPTIDE1,PEPTIDE1,1:R1-5:R2$$$V2.0): in data set [5] (red blood cells), the HC50 at 3 h was above 100 µM.
Regarding `CCCCCCCCCCCC(=O)N[C@@H](CCCCN)C(=O)N[C@@H](CCCCN)C(=O)NCCCCCCCCCCCC(=O)N[C@@H](CCCCN)C(N)=O` [C12KKNC12KNH2] (HELM PEPTIDE1{[CCCCCCCCCCCC(=O)[*:2]].K.K.[O=C(CCCCCCCCCCCN[*:1])[*:2]].K.[am]}$$$$V2.0), the CC50 in data set [1] (human, 24 h) is above 16 µM; in data set [3] (human, 24 h), above 50 µM; in data set [4] (mouse, 24 h) it was above 16 µM. Besides, the CC50 at 24 h in data set [2] (setting [10]) was above 16 µM.
On to `NCCCCCCCCCCCC(=O)N[C@@H](CCCCN)C(=O)N[C@@H](CCCCN)C(=O)NCCCCCCCCCCCC(=O)N[C@@H](CCCCN)C(=O)N[C@@H](CCCCN)C(=O)NCCCCCCCCCCCC(=O)N[C@@H](CCCCN)C(N)=O` [NC12K(KNC12K)2NH2] (H-[12Ado]KK[12Ado]KK[12Ado]K-NH2), for which the CC50 in data set [1] (setting [6]), in data set [3] (setting [8]) and in data set [4] (setting [9]) was above 16 µM in each case. Moreover, the CC50 at 24 h in data set [2] (setting [7]) was above 16 µM.
For `NCCCCCCCCCCCC(=O)N[C@@H](CCCCN)C(=O)N[C@@H](CCCCN)C(=O)NCCCCCCCCCCCC(=O)N[C@@H](CCCCN)C(N)=O` [NC12KKNC12KNH2] (HELM PEPTIDE1{[NCCCCCCCCCCCC(=O)[*:2]].K.K.[O=C(CCCCCCCCCCCN[*:1])[*:2]].K.[am]}$$$$V2.0), the CC50 in data set [1] (setting [6]), in data set [3] (setting [8]) and in data set [4] (setting [9]) was above 16 µM throughout. Moreover, in data set [2] (setting [7]), the CC50 at 24 h is above 16 µM.
The compound `NCCCC[C@@H]1NC(=O)CCCCCCCCCCCNC(=O)[C@H](CCCCN)NC(=O)[C@H](CCCCN)NC(=O)CCCCCCCCCCCNC(=O)[C@H](CCCCN)NC(=O)[C@H](CCCCN)NC(=O)CCCCCCCCCCCNC1=O` [Cyclic-NC12K(KNC12K)2] (cyclo([12Ado]KK[12Ado]KK[12Ado]K)) registered an HC50 at 3 h in data set [5] above 100 µM.
For the compound `CCCCCCCC(=O)N[C@@H](CCCCN)C(=O)N[C@@H](CCCCN)C(=O)NCCCCCCCCCCCC(=O)N[C@@H](CCCCN)C(N)=O` [C8KKNC12KNH2] (HELM PEPTIDE1{[CCCCCCCC(=O)[*:2]].K.K.[O=C(CCCCCCCCCCCN[*:1])[*:2]].K.[am]}$$$$V2.0), the CC50 in data set [1] (human, 24 h) is above 16 µM; in data set [3] (human, 24 h), above 16 µM; in data set [4] (mouse, 24 h) it was above 16 µM. Also, the CC50 at 24 h in data set [2] (setting [10]) was above 16 µM.
In turn, `NCCCC[C@@H]1NC(=O)CCCCCCCCCCCNC(=O)[C@H](CCCCN)NC(=O)CCCCCCCCCCCNC(=O)[C@H](CCCCN)NC(=O)CCCCCCCCCCCNC(=O)[C@H](CCCCN)NC(=O)[C@H](CCCCN)NC(=O)CCCCCCCCCCCNC(=O)[C@H](CCCCN)NC(=O)CCCCCCCCCCCNC1=O` [Cyclic-K(NC12K)5] (cyclo(K[12Ado]K[12Ado]K[12Ado]K[12Ado]K[12Ado]K)) showed an HC50 at 3 h in data set [5] of 3.4 ± 0.3 µM.
On the same count and under the same terms, in the case of `NCCCC[C@@H]1NC(=O)CCCCCCCCCCCNC(=O)[C@H](CCCCN)NC(=O)[C@H](CCCCN)NC(=O)CCCCCCCCCCCNC(=O)[C@H](CCCCN)NC(=O)[C@H](CCCCN)NC(=O)CCCCCCCCCCCNC(=O)[C@H](CCCCN)NC1=O` [Cyclic-(KNC12K)3] (cyclo(K[12Ado]KK[12Ado]KK[12Ado]K)) it was above 100 µM.
Turning to `NCCCCCCCCCCCC(=O)N[C@@H](CCCCN)C(=O)NCCCCCCCCCCCC(=O)N[C@@H](CCCCN)C(=O)N[C@@H](CCCCN)C(=O)NCCCCCCCCCCCC(=O)N[C@@H](CCCCN)C(N)=O` [NC12(KNC12K)2NH2] (H-[12Ado]K[12Ado]KK[12Ado]K-NH2), the CC50 in data set [1] (human, 24 h) is above 16 µM; in data set [3] (human, 24 h), above 16 µM; in data set [4] (mouse, 24 h), above 16 µM. In addition, the CC50 at 24 h in data set [2] (setting [10]) is above 16 µM.
